How the values were obtained:
Mus musculus = species: Mus musculus; assay: Inhibition of LPS-induced TNF-alpha production in mice after 30 min peroral dose; format: functional; conditions: po, 0.5 h
Phosphodiesterase 4 [1] = biological target: T1, Phosphodiesterase 4 (Homo sapiens, UniProt P27815+Q08499+Q07343+Q08493); assay: Inhibition of phosphodiesterase 4; format: protein assay
Phosphodiesterase 4 [2] = biological target: T1, Phosphodiesterase 4; assay: Inhibition of rolipram binding to phosphodiesterase 4; format: protein assay

IC50 (Phosphodiesterase 4 [1])	Ki (Phosphodiesterase 4 [2])	SMILES	ED50 (Mus musculus)
–	–	COc1ccc(C(=O)Nc2c(Cl)cncc2Cl)cc1OC1CCCC1	0.72 mg/kg
70 nM	120 nM	COc1cc2nc(CO)c(CO)c(-c3ccnc(-n4nc(-c5cccnc5)c5ccccc5c4=O)c3)c2cc1OC.Cl	–
0.5 nM	1.8 nM	COc1cc2c(cc1OC)C(c1ccnc(-n3ccc4c(OCCN5CCOCC5)cccc4c3=O)c1)=N[C@H](CO)C2.Cl	0.13 mg/kg
3 nM	5.4 nM	COc1cc2c(cc1OC)C(c1ccnc(-n3nc(-c4cncnc4)c4ccccc4c3=O)c1)=N[C@H](CO)C2.Cl	–
–	–	COc1ccc(C2CNC(=O)C2)cc1OC1CCCC1 (stereo not drawn) [ROLIPRAM]	2.6 mg/kg
0.3 nM	1.7 nM	COc1cc2cc(CO)nc(-c3ccnc(-n4nc(-c5nccs5)c5ccccc5c4=O)c3)c2cc1OC.Cl	0.26 mg/kg
2 nM	3.1 nM	COc1cc2c(cc1OC)C(c1ccnc(-n3nc(Cc4cccnc4)c4ccccc4c3=O)c1)=N[C@H](CO)C2.Cl	–
–	3 nM	COc1cc2cc(CO)cc(-c3ccnc(-n4nc(-c5cccnc5)c5ccccc5c4=O)c3)c2cc1OC.Cl	–
1 nM	6.5 nM	COc1cc2c(cc1OC)C(c1ccnc(-n3nc(-c4cccnc4)c4ccccc4c3=O)c1)=N[C@H](CO)C2.Cl	0.52 mg/kg
0.7 nM	–	COc1cc2cc(CO)c(CO)c(-c3ccnc(-n4nc(-c5cccnc5)c5ccccc5c4=O)c3)c2cc1OC.Cl	1.2 mg/kg
0.6 nM	1.4 nM	COc1cc2cc(CO)nc(-c3ccnc(-n4nc(-c5cccnc5)c5ccccc5c4=O)c3)c2cc1OC.Cl	–
0.4 nM	1.5 nM	COc1cc2c(cc1OC)C(c1ccnc(-n3ccc4c(OCc5cccnc5)cccc4c3=O)c1)=N[C@H](CO)C2.Cl	2.4 mg/kg
0.3 nM	1.4 nM	COc1cc2cc(CO)nc(-c3ccnc(-n4nc(-c5cccs5)c5ccccc5c4=O)c3)c2cc1OC.Cl	1.6 mg/kg

Source: ChEMBL document CHEMBL1136106, “Synthesis and biological activities of 1-pyridylisoquinoline and 1-pyridyldihydroisoquinoline derivatives as PDE4 inhibitors” (Bioorg Med Chem Lett, 2003)
